Laboratory results taken from PubChem BioAssay AID330 (DTP/NCI, 2004).
Several values for one entry are separate records, joined by “and”; a condition that tells them apart may be missing. Identical values can stand only once. Inconclusive results and toxic doses are left out. How the source made its calls: active means survival T/C of 150% or more; inactive means T/C below 125% in these data.

Tested on: P388 leukemia ip, CD2F1 mice, survival T/C
Assay: NCI In Vivo Anticancer Drug Screen. Data for tumor model P388 Leukemia (intraperitoneal) in CD2F1 (CDF1) mice
Details: endpoint: median survival time, higher = longer survival
Method in brief: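 Mice carrying the transplanted tumor received test compound or vehicle. Survival was recorded in each group, and the value is the treated-group measurement divided by that of the vehicle-treated control group.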

[1] = dose: 50.0 mg/kg/injection, schedule: Q01DX009 (ip), vehicle: saline with Tween-80
[2] = dose: 100.0 mg/kg/injection, schedule: Q01DX001 (ip), vehicle: Klucel (hydroxypropylcellulose) (HPC)
[3] = dose: 200.0 mg/kg/injection, schedule: Q01DX001 (ip), vehicle: Klucel (hydroxypropylcellulose) (HPC)
[4] = dose: 400.0 mg/kg/injection, schedule: Q01DX001 (ip), vehicle: Klucel (hydroxypropylcellulose) (HPC)
[5] = dose: 60.0 mg/kg/injection, schedule: Q01DX005 (ip), vehicle: Klucel (hydroxypropylcellulose) (HPC)
[6] = dose: 120.0 mg/kg/injection, schedule: Q01DX005 (ip), vehicle: Klucel (hydroxypropylcellulose) (HPC)
[7] = dose: 240.0 mg/kg/injection, schedule: Q01DX005 (ip), vehicle: Klucel (hydroxypropylcellulose) (HPC)
[8] = dose: 50.0 mg/kg/injection, schedule: Q01DX005 (ip), vehicle: saline with Tween-80
[9] = dose: 100.0 mg/kg/injection, schedule: Q01DX005 (ip), vehicle: saline with Tween-80
[10] = dose: 200.0 mg/kg/injection, schedule: Q01DX005 (ip), vehicle: saline with Tween-80
[11] = dose: 100.0 mg/kg/injection, schedule: Q01DX009 (ip), vehicle: Klucel (hydroxypropylcellulose) (HPC)
[12] = dose: 200.0 mg/kg/injection, schedule: Q01DX009 (ip), vehicle: Klucel (hydroxypropylcellulose) (HPC)
[13] = dose: 25.0 mg/kg/injection, schedule: Q01DX009 (ip), vehicle: other
[14] = dose: 50.0 mg/kg/injection, schedule: Q01DX009 (ip), vehicle: other
[15] = dose: 100.0 mg/kg/injection, schedule: Q01DX009 (ip), vehicle: other
[16] = dose: 200.0 mg/kg/injection, schedule: Q01DX009 (ip), vehicle: other

Measured: T/C

Cc1ccc([N+]([O-])=NC#N)cc1
inactive: dose: 7.5 mg/kg/injection, schedule: Q04DX003 (ip), vehicle: Klucel (hydroxypropylcellulose) (HPC) 97 % of control | dose: 15.0 mg/kg/injection, schedule: Q04DX003 (ip), vehicle: Klucel (hydroxypropylcellulose) (HPC) 100 % of control | dose: 30.0 mg/kg/injection, schedule: Q04DX003 (ip), vehicle: Klucel (hydroxypropylcellulose) (HPC) 112 % of control

CCOC(=O)c1ccc(-n2c(C)nc3cc(Cl)ccc3c2=O)cc1
inactive: [1] 104 % of control | dose: 100.0 mg/kg/injection, schedule: Q01DX009 (ip), vehicle: saline with Tween-80 98 % of control | dose: 200.0 mg/kg/injection, schedule: Q01DX009 (ip), vehicle: saline with Tween-80 98 % of control

O=C(SCC(/C=N/Nc1ccc([N+](=O)[O-])cc1[N+](=O)[O-])c1ccccc1)c1ccccc1 (centres undefined)
inactive: [2] 92 % of control | [3] 89 % of control | [4] 92 % of control

CCOC(=O)c1c(C)noc1NC
inactive: [5] 100 % of control | [6] 101 % of control | [7] 100 % of control

CCOCC1OCCCO1
inactive: dose: 60.0 mg/kg/injection, schedule: Q01DX005 (ip), vehicle: saline 104 % of control | dose: 120.0 mg/kg/injection, schedule: Q01DX005 (ip), vehicle: saline 103 % of control | dose: 240.0 mg/kg/injection, schedule: Q01DX005 (ip), vehicle: saline 103 % of control

NC(Cc1ccc(O)cc1)C(=O)N/N=C/c1ccccc1O (centres undefined)
inactive: [8] 92 % of control | [9] 90 % of control | [10] 113 % of control

COc1cc2c(cc1OC)CN1CCc3cc(OC)c(OC)cc3C1C2 (centres undefined)
inactive: [8] 99 % of control | [9] 94 % of control | [10] 91 % of control

NNC(=O)Cc1cc(=O)[nH][nH]1
inactive: [11] 101 % of control | [12] 100 % of control | dose: 400.0 mg/kg/injection, schedule: Q01DX009 (ip), vehicle: Klucel (hydroxypropylcellulose) (HPC) 108 % of control

Cc1cc(=O)c2c3c(ccc2[nH]1)Oc1ccccc1O3
inactive: [8] 101 % of control | [9] 101 % of control | [10] 100 % of control

Cn1c(C(F)(F)F)nc2nc(Cl)c(Cl)nc21
inactive: dose: 25.0 mg/kg/injection, schedule: Q01DX005 (ip), vehicle: saline with Tween-80 108 % of control | [8] 106 % of control | [9] 101 % of control and 106 % of control | [10] 99 % of control and 103 % of control | dose: 400.0 mg/kg/injection, schedule: Q01DX005 (ip), vehicle: saline with Tween-80 101 % of control

COC(=O)n1nc(C)c(N(C)C)n1
inactive: [8] 99 % of control | [9] 106 % of control | [10] 113 % of control

COc1ccc2c(c1)c(=O)c(C(=O)O)cn2CCCOc1ccc([N+](=O)[O-])cc1
inactive: [5] 88 % of control | [6] 93 % of control | [7] 89 % of control

Clc1ccccc1C=Nc1ccccc1
inactive: [1] 121 % of control

COc1ccc(C(=O)/C(C)=C(/C)NCCC#N)c(OCc2ccccc2)c1OC
inactive: [13] 95 % of control | [14] 91 % of control | [15] 95 % of control | [16] 100 % of control | dose: 400.0 mg/kg/injection, schedule: Q01DX009 (ip), vehicle: other 95 % of control

COc1cccc2c1C(=O)c1nccc3cc4c(c-2c13)OCO4
inactive: dose: 30.0 mg/kg/injection, schedule: Q01DX005 (ip), vehicle: Klucel (hydroxypropylcellulose) (HPC) 91 % of control | [5] 90 % of control | [6] 110 % of control

COc1ccc(CCN2CCC(Nc3nc4ccccc4n3Cc3ccc(F)cc3)CC2)cc1
inactive: [8] 92 % of control | [9] 95 % of control

CCC1CN2CCc3cc(OC)c(OC)cc3C2CC1C#N (centres undefined)
inactive: [1] 93 % of control

CN(C)CCCCNc1c2c(nc3c(Cl)cccc13)CCC2
inactive: [8] 99 % of control | [9] 105 % of control | [10] 99 % of control

Cc1ccc(S(=O)(=O)OC2COC(OCc3ccccc3)C(OS(=O)(=O)c3ccc(C)cc3)C2O)cc1 (centres undefined)
inactive: [8] 100 % of control | [9] 86 % of control

CC12CCCC([N+](=O)[O-])(C1)NC(=O)C2C#N (centres undefined)
inactive: [5] 108 % of control | [6] 95 % of control | [7] 100 % of control

CCOC(=O)C(C#N)c1cc(O)c(O)c2ccc(O)cc12 (centres undefined)
inactive: dose: 100.0 mg/kg/injection, schedule: Q01DX001 (ip), vehicle: saline with Tween-80 97 % of control | dose: 200.0 mg/kg/injection, schedule: Q01DX001 (ip), vehicle: saline with Tween-80 107 % of control | dose: 400.0 mg/kg/injection, schedule: Q01DX001 (ip), vehicle: saline with Tween-80 106 % of control

O=C(OCCN1C(=O)C2C3C=CC(C3)C2C1=O)C1C2C=CC(C2)C1C(=O)OCCN1C(=O)C2C3C=CC(C3)C2C1=O (centres undefined)
inactive: dose: 50.0 mg/kg/injection, schedule: Q01DX005 (ip), vehicle: saline + Tween-80 + alcohol 100 % of control | dose: 100.0 mg/kg/injection, schedule: Q01DX005 (ip), vehicle: saline + Tween-80 + alcohol 105 % of control | dose: 200.0 mg/kg/injection, schedule: Q01DX005 (ip), vehicle: saline + Tween-80 + alcohol 105 % of control

Cc1coc2c1CC1OC1(C)CCC1OC1(C)C2 (centres undefined)
inactive: dose: 12.5 mg/kg/injection, schedule: Q01DX005 (ip), vehicle: Klucel + Tween-80 96 % of control | dose: 25.0 mg/kg/injection, schedule: Q01DX005 (ip), vehicle: Klucel + Tween-80 98 % of control | dose: 50.0 mg/kg/injection, schedule: Q01DX005 (ip), vehicle: Klucel + Tween-80 99 % of control | dose: 100.0 mg/kg/injection, schedule: Q01DX005 (ip), vehicle: Klucel + Tween-80 106 % of control

COc1cc(Br)c(C(=O)N2CCCc3ccccc32)cc1OC
inactive: dose: 12.5 mg/kg/injection, schedule: Q01DX009 (ip), vehicle: other 101 % of control | [13] 94 % of control | [14] 91 % of control | [15] 91 % of control | [16] 94 % of control

O=C1c2ccccc2C(=O)N1CCNCCN1C(=O)c2ccccc2C1=O
inactive: dose: 60.0 mg/kg/injection, schedule: Q01DX005 (ip), vehicle: saline with Tween-80 103 % of control | dose: 120.0 mg/kg/injection, schedule: Q01DX005 (ip), vehicle: saline with Tween-80 93 % of control | dose: 240.0 mg/kg/injection, schedule: Q01DX005 (ip), vehicle: saline with Tween-80 93 % of control

C=C(C)Cn1c(=O)n(CC)c(=O)c2[nH]c(Cl)nc21
inactive: dose: 16.0 mg/kg/injection, schedule: Q01DX009 (ip), vehicle: Klucel (hydroxypropylcellulose) (HPC) 108 % of control | dose: 32.0 mg/kg/injection, schedule: Q01DX009 (ip), vehicle: Klucel (hydroxypropylcellulose) (HPC) 107 % of control | dose: 50.0 mg/kg/injection, schedule: Q01DX009 (ip), vehicle: Klucel (hydroxypropylcellulose) (HPC) 95 % of control | dose: 64.0 mg/kg/injection, schedule: Q01DX009 (ip), vehicle: Klucel (hydroxypropylcellulose) (HPC) 117 % of control | [11] 100 % of control | [12] 101 % of control

CNC(=S)N/N=C/c1ccc([N+](=O)[O-])s1
inactive: dose: 6.25 mg/kg/injection, schedule: Q01DX009 (ip), vehicle: saline with Tween-80 99 % of control | dose: 12.5 mg/kg/injection, schedule: Q01DX009 (ip), vehicle: saline with Tween-80 89 % of control | dose: 25.0 mg/kg/injection, schedule: Q01DX009 (ip), vehicle: saline with Tween-80 88 % of control

CCc1ccc(/C=C/c2ccc(O)c3ncccc23)[n+](C)c1
inactive: dose: 4.0 mg/kg/injection, schedule: Q04DX003 (ip), vehicle: saline 100 % of control | dose: 8.0 mg/kg/injection, schedule: Q04DX003 (ip), vehicle: saline 104 % of control | dose: 16.0 mg/kg/injection, schedule: Q04DX003 (ip), vehicle: saline 118 % of control

O=S(=O)(Cc1ccccc1)Oc1ccccc1
inactive: dose: 100.0 mg/kg/injection, schedule: Q04DX003 (ip), vehicle: Klucel (hydroxypropylcellulose) (HPC) 109 % of control | dose: 200.0 mg/kg/injection, schedule: Q04DX003 (ip), vehicle: Klucel (hydroxypropylcellulose) (HPC) 103 % of control | dose: 400.0 mg/kg/injection, schedule: Q04DX003 (ip), vehicle: Klucel (hydroxypropylcellulose) (HPC) 94 % of control

c1ccc(C2CC(c3ccccc3)c3ccccc3O2)cc1 (centres undefined)
inactive: [2] 87 % of control | [3] 90 % of control | [4] 96 % of control
